Reference: PubChem BioAssay (NCI)
“And” between values parts separate entries of the source, which are not always exact repeats. Equal entries are not always repeated.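 Protocol summary: plate cells (96-well), add compound at 5 concentrations, incubate 48 h, interpolate endpoints linearly. GI50 is the concentration that inhibits growth by half. The concentration for full growth arrest is given as TGI.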

Key:
Assay in all cases: inhibition of tumour cell growth, NCI panel, 48 h
HCC-2998 colon = system: HCC-2998 colon
HCT-15 colon = system: HCT-15 colon
HOP-92 NSCLC = system: HOP-92 NSCLC
MOLT-4 leukemia = system: MOLT-4 leukemia
NCI-H23 lung = system: NCI-H23 lung
SF-295 CNS = system: SF-295 CNS
SNB-75 CNS = system: SNB-75 CNS
TK-10 renal = system: TK-10 renal
UACC-257 melanoma = system: UACC-257 melanoma
UACC-62 melanoma = system: UACC-62 melanoma

| Compound | GI50 (HCC-2998 colon) | TGI (HCC-2998 colon) | GI50 (HCT-15 colon) | TGI (HCT-15 colon) | GI50 (HOP-92 NSCLC) | TGI (HOP-92 NSCLC) | GI50 (MOLT-4 leukemia) | TGI (MOLT-4 leukemia) | GI50 (NCI-H23 lung) | TGI (NCI-H23 lung) | GI50 (SF-295 CNS) | TGI (SF-295 CNS) | GI50 (SNB-75 CNS) | TGI (SNB-75 CNS) | GI50 (TK-10 renal) | TGI (TK-10 renal) | GI50 (UACC-257 melanoma) | TGI (UACC-257 melanoma) | GI50 (UACC-62 melanoma) | TGI (UACC-62 melanoma) |
| --- | --- | --- | --- | --- | --- | --- | --- | --- | --- | --- | --- | --- | --- | --- | --- | --- | --- | --- | --- | --- |
| COc1ccccc1Cn1cc2c(c1)-c1oncc1CC2 | 0.873 µM | 6.87 µM | 0.535 µM | > 61.2 µM | 2.75 µM | 57.7 µM | 0.477 µM | 14.8 µM | 0.8 µM | > 55.3 µM | 0.375 µM | 3.88 µM | 0.396 µM | 9.7 µM | 2.67 µM | > 78 µM | 10.4 µM | > 63.6 µM | 1.11 µM | > 100 µM |
| COC(=O)/C(C#N)=C1\N=NNN1CCCN1CCOCC1 | – | > 100 µM | – | > 100 µM | – | > 100 µM | – | > 100 µM | – | > 100 µM | – | > 100 µM | – | > 100 µM | – | > 100 µM | – | > 100 µM | – | > 100 µM |
| Oc1cc2cc(-c3ccccc3)[nH]c2c2ccccc12 | – | > 100 µM | – | > 100 µM | – | > 95.6 µM | – | > 82.6 µM | – | 36.6 µM | – | > 24.5 µM | – | > 100 µM | – | > 100 µM | – | 32.5 µM | – | 29.4 µM |
| CC(C)OP(=O)(CP(=O)(OC(C)C)OC(C)C)OC(C)C.[CH3][Sn]([Br])([Br])[Br] | > 100 µM | > 100 µM | > 100 µM | > 100 µM | > 100 µM | > 100 µM | > 100 µM | > 100 µM | > 100 µM | > 100 µM | > 100 µM | > 100 µM | > 100 µM | > 100 µM | > 100 µM | > 100 µM | > 100 µM | > 100 µM | > 100 µM | > 100 µM |
| COc1cc2c3c(c1OC)-c1ccccc1C(C(OC(C)=O)c1ccccc1)C3N(C)CC2 (stereo not given) | – | > 100 µM | – | > 100 µM | – | > 100 µM | – | > 100 µM | – | > 100 µM | – | > 100 µM | – | > 100 µM | – | > 100 µM | – | > 100 µM | – | > 100 µM |
| COc1cccc(-c2nn(-c3ccccc3)cc2-c2ccnc(NCCNC(=O)Nc3ccc(Cl)c(Cl)c3)c2)c1 | 1.88 µM | 3.78 µM | 3 µM | 10.7 µM | 1.37 µM | 5.48 µM | 2.31 µM | 7.11 µM | 2.46 µM | 11.6 µM | 2.41 µM | 7.28 µM | 1.43 µM | 5.96 µM | 4.78 µM | 18.9 µM | 3.63 µM | 20.3 µM | 1.84 µM | 4.51 µM |
| O=c1c2ccccc2nc(-c2ccccc2)n1NCC1(O)OCC(O)C(O)C1O (stereo not given) | – | > 100 µM | – | > 100 µM | – | > 100 µM | – | > 100 µM | – | > 100 µM | – | > 100 µM | – | > 100 µM | – | > 100 µM | – | > 100 µM | – | > 100 µM |
| Cc1cc(CS(=O)(=O)/C=C/c2ccccc2[N+](=O)[O-])c(CS(=O)(=O)/C=C/c2ccccc2[N+](=O)[O-])cc1C | – | > 100 µM | – | > 100 µM | – | 74.1 µM | – | > 100 µM | – | > 51.7 µM | – | 63.2 µM | – | 32 µM | – | > 81.8 µM | – | > 100 µM | – | > 100 µM |
| c1ccc2c(c1)nc(NCCN1CCNCC1)c1c3ccccc3[nH]c21 | 0.425 µM | 1.68 µM | 0.176 µM | 0.7 µM | 0.43 µM | 2.62 µM | 0.0983 µM | 0.887 µM | 0.666 µM | 2.03 µM | 0.618 µM | 2.21 µM | 1.44 µM | 2.86 µM | 1.34 µM | 6.91 µM | 1.71 µM | 3.27 µM | 1.76 µM | 3.69 µM |
| N#CC1c2ccccc2-c2ccccc2N1C(=O)c1ccccc1 (stereo not given) | 2.72 µM | 22.2 µM | 1.38 µM | > 100 µM | 2.42 µM | 19.9 µM | 1.73 µM | > 100 µM | 3.09 µM | > 100 µM | 2.63 µM | > 100 µM | 2.43 µM | > 49.4 µM | 1.23 µM | 28.2 µM | 5.32 µM | > 54.5 µM | 1.9 µM | > 38.5 µM |
| CC1=CC2=C(C)C3(CC3)[C@@](C)(O)C(=O)C2=C1 | – | 0.406 µM | – | 0.454 µM | – | 0.692 µM | – | > 1 µM | – | 0.186 µM | – | 0.571 µM | – | 0.425 µM | – | 0.89 µM | – | 0.578 µM | – | 0.44 µM |
| c1ccc(SCCCC(Sc2ccccc2)Sc2ccccc2)cc1 | – | > 100 µM | – | > 100 µM | – | > 100 µM | – | > 100 µM | – | > 100 µM | – | > 100 µM | – | > 100 µM | – | > 100 µM | – | > 100 µM | – | > 100 µM |
| C/C(=C(/c1ccc(O)cc1)c1ccc(OCCN2CCCC2)cc1)c1ccccc1 | 2.34 µM | 6.18 µM | 1.81 µM | 4.64 µM | 2.24 µM | 7.34 µM | 2.94 µM | 11 µM | 4.31 µM | 18.2 µM | 1.95 µM | 4.19 µM | 3.07 µM | 15.7 µM | 4.61 µM | 16.4 µM | 2.03 µM | 3.93 µM | 2.26 µM | 4.72 µM |
| COc1ccccc1C(=O)c1cnc(NC2CCN(S(C)(=O)=O)CC2)nc1N | 13 µM | > 25 µM | 6.28 µM | > 25 µM | 6.14 µM | > 22.9 µM | 6.43 µM | > 25 µM | 5.71 µM | > 25 µM | 5.5 µM | > 25 µM | 7.57 µM | > 25 µM | 5.92 µM | > 25 µM | 11.6 µM | > 25 µM | 6.68 µM | > 25 µM |
| O=C1c2c(O)cccc2C(C(=O)CCCCC(=O)C2c3cccc(O)c3C(=O)c3c(O)cccc32)c2cccc(O)c21 | 1.07 µM | 2.63 µM and 3.14 µM | 1.75 µM | 2.6 µM and 5.12 µM | 1.3 µM | 1.69 µM and 2.8 µM | 1.8 µM | 5.42 µM and 9.97 µM | 1.25 µM | 1.56 µM and 2.59 µM | 0.672 µM | 4.57 µM and 1.49 µM | 1.4 µM | 3.44 µM and 3.32 µM | 2.85 µM | 3.65 µM and 8.35 µM | 1.38 µM | 1.34 µM and 2.96 µM | 1.62 µM | 2.48 µM and 5.78 µM |
| CCOC(=O)c1[nH]c2c(c1C)-c1[nH]c(=O)c(S(=O)(=O)c3ccccc3)cc1SC2 | > 100 µM | > 100 µM | > 100 µM | > 100 µM | 0.504 µM | 61.1 µM | 15.7 µM | > 100 µM | 41.1 µM | > 100 µM | 28.1 µM | > 100 µM | 24.8 µM | 86.6 µM | 42.6 µM | > 100 µM | 67.1 µM | > 100 µM | 46.7 µM | > 100 µM |
| Nc1ncnc2occ(-c3ccc(NC(=O)Nc4cc(C(F)(F)F)cc(C(F)(F)F)c4)cc3)c12 | 4.63 µM | 8.27 µM | 2.98 µM | 7.83 µM | 0.977 µM | 4.42 µM | 4.16 µM | 17.8 µM | 3.12 µM | 6.86 µM | 2.72 µM | 6.53 µM | 1.42 µM | 4.88 µM | 1.84 µM | 5.96 µM | 3.27 µM | 6.69 µM | 3.26 µM | 6.68 µM |
| Clc1ccc2c(Cl)ncnc2c1 | – | > 100 µM | – | > 100 µM | – | > 100 µM | – | > 100 µM | – | > 100 µM | – | > 100 µM | – | > 100 µM | – | > 100 µM | – | > 100 µM | – | > 100 µM |
| O=C(N[C@@H]1CCCc2ccccc21)[C@H](CCC(=O)N1CCN(C2CCCCC2)CC1)N1C(=O)[C@@H](N2C(=O)OC[C@@H]2c2ccccc2)[C@H]1/C=C/c1ccccc1 | 2.27 µM | 5.37 µM | 2.97 µM | 12.3 µM | 1.58 µM | 5.18 µM | 2.27 µM | > 100 µM | 3.7 µM | 19.7 µM | 2.34 µM | 7.57 µM | 1.32 µM | 4.19 µM | 2.02 µM | 6.01 µM | 1.49 µM | 3.36 µM | 1.86 µM | 3.93 µM |
